In US6613323B2 (priority 2000, dated 2003):

Tested on: Magnaporthe grisea
Format: cell-based

Structure (SMILES): OCCCCCCCCCCCCCCCCO [1,16-hexadecanediol]
- effectiveness in inducing appressorium formation compared with cAMP (in the presence of recombinant PepEST): much more effective than cAMP
- reversal of the inhibition of appressorium formation by the recombinant protein (spores treated in the presence of recombinant PepEST, cAMP 10 mM, 1,16-hexadecanediol 0.01 mM): reversible
